From PubChem BioAssay (NCI)
Several values for one entry are separate records, joined by “and”; a condition that tells them apart may be missing. Equal values may be shown once.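 48-hour exposure; five concentrations; linearly interpolated endpoints. Abbreviation: GI50, concentration required for 50% inhibition of growth. TGI: concentration producing complete growth inhibition.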

Legend:
Experiment in all cases: NCI-60 cell line screen, 48 h
ACHN renal = system: ACHN renal
SK-MEL-2 melanoma = system: SK-MEL-2 melanoma
CAKI-1 renal = system: CAKI-1 renal
IGROV1 ovarian = system: IGROV1 ovarian
HCT-116 colon = system: HCT-116 colon
NCI-H460 lung = system: NCI-H460 lung
RPMI-8226 leukemia = system: RPMI-8226 leukemia
SNB-75 CNS = system: SNB-75 CNS
OVCAR-4 ovarian = system: OVCAR-4 ovarian
SN12C renal = system: SN12C renal

SMILES | GI50 (ACHN renal) | TGI (ACHN renal) | GI50 (SK-MEL-2 melanoma) | TGI (SK-MEL-2 melanoma) | GI50 (CAKI-1 renal) | TGI (CAKI-1 renal) | GI50 (IGROV1 ovarian) | TGI (IGROV1 ovarian) | GI50 (HCT-116 colon) | TGI (HCT-116 colon) | GI50 (NCI-H460 lung) | TGI (NCI-H460 lung) | GI50 (RPMI-8226 leukemia) | TGI (RPMI-8226 leukemia) | GI50 (SNB-75 CNS) | TGI (SNB-75 CNS) | GI50 (OVCAR-4 ovarian) | TGI (OVCAR-4 ovarian) | GI50 (SN12C renal) | TGI (SN12C renal)
CN(C)CCCC(=O)Nc1ccc(Cn2nnc3c2C(=O)c2nnn(Cc4ccc(NC(=O)CCCN(C)C)cc4)c2C3=O)cc1 | 38.9 µM | > 100 µM | 2.17 µM | 4.64 µM | > 100 µM | > 100 µM | 2.32 µM | 5.74 µM | 3.03 µM | 11.6 µM | 2.82 µM | 10.8 µM | 3.17 µM | 15.9 µM | 1.69 µM | 3.06 µM | 1.34 µM | 2.64 µM | 1.96 µM | 4 µM
CCCCc1nc2cc(/C=C/C(=O)NO)ccc2n1CCN(CC)CC | 0.285 µM | 1.44 µM | 0.153 µM | 0.506 µM | 0.237 µM | 0.943 µM | 0.733 µM | 5.67 µM | 0.115 µM | 0.571 µM | 0.312 µM | > 100 µM | 0.176 µM | > 100 µM | 0.227 µM | 25.4 µM | 0.345 µM | > 54.2 µM | 0.489 µM | 30.1 µM
Oc1ccc(SCc2ccc(NCc3ccccc3)cc2)cc1 | – | > 100 µM | – | 61.1 µM | – | > 100 µM | – | > 100 µM | – | > 100 µM | – | > 100 µM | – | – | – | 67.2 µM | – | > 100 µM | – | 64.6 µM
OC(C(=Nc1ccccc1)c1ccccc1)c1ccccc1 (configuration not stated) | – | 31.5 µM | – | 6.47 µM | – | 30.3 µM | – | 51.7 µM | – | 31.8 µM | – | 34.3 µM | – | 71.1 µM | – | 25.4 µM | – | 51.8 µM | – | 25.3 µM
CC(C)c1ccc(O)c(=O)cc1 | 4.46 µM | > 68.5 µM | 34.5 µM | 39 µM | 8.54 µM | > 70.1 µM | 7.48 µM | > 100 µM | 3.92 µM | 13.4 µM and 37.2 µM | 2.66 µM | 81.4 µM | 6.35 µM | > 80.5 µM | 75.4 µM | > 100 µM | 4.56 µM | > 100 µM | 5.85 µM | > 100 µM
COC1(OC)c2ccccc2C2(O)c3ccccc3C(=O)C12 (configuration not stated) | – | > 100 µM | – | > 100 µM | – | – | – | 67 µM | – | > 100 µM | – | > 100 µM | – | 62.5 µM | – | > 100 µM | – | – | – | > 100 µM
CN1c2ccccc2C(C)(C)C12CC(c1ccc(Cl)c(S(=O)(=O)N3CCCC3)c1)=NO2 (configuration not stated) | > 100 µM | > 100 µM | > 100 µM | > 100 µM | – | – | > 100 µM | > 100 µM | – | – | 0.375 µM | > 100 µM | – | – | > 100 µM | > 100 µM | > 100 µM | > 100 µM | > 100 µM | > 100 µM
CC(=O)OC1=C2C(CC3C4CC=C5CC(OC(C)=O)CCC5(C)C4CCC23C)C2C(=O)N(Cc3ccccc3)C(=O)C2C1 (configuration not stated) | 9.65 µM | > 100 µM | – | – | 4.65 µM | > 100 µM | 6.85 µM | > 100 µM | 3.82 µM | 17.2 µM | 3.73 µM | 31.1 µM | 2.78 µM | 9.82 µM | 5.54 µM | 86.5 µM | 2.33 µM | 9.27 µM | 10.9 µM | > 100 µM
CN(Cc1ccccc1)C1(N(C)Cc2ccccc2)CC1 | – | > 100 µM | – | > 100 µM | – | > 100 µM | – | > 100 µM | – | > 100 µM | – | > 100 µM | – | – | – | > 100 µM | – | > 100 µM | – | > 100 µM
COc1cc(/C=C/C(=O)c2cc(OC)c(OC)c(OC)c2)cc(OC)c1OC | 4.73 µM | 46.8 µM | – | – | 1.23 µM | 3.87 µM | – | – | 2.3 µM | 8.74 µM | 1.89 µM | 4.07 µM | 2.56 µM | 19.4 µM | 2.31 µM | 9.41 µM | 3.63 µM | 57.8 µM | 4.02 µM | 20.8 µM
O=[N+]([O-])c1ccc(O)c2ncccc12 | 42.5 µM and 4.81 µM | > 100 µM and 35.8 µM | 4.06 µM | 19.3 µM | – | > 100 µM and 16.5 µM | – | > 100 µM and 13.8 µM | – | > 100 µM and 12.5 µM | – | > 100 µM and 11.4 µM | – | > 100 µM | – | > 100 µM and 26 µM | – | – | – | > 100 µM and 58.1 µM
COc1ccc(Nc2c[nH]c(=O)[nH]c2=O)cc1 | – | > 100 µM | – | > 100 µM | – | > 100 µM | – | > 100 µM | – | > 100 µM | – | – | – | > 100 µM | – | > 100 µM | – | > 100 µM | – | > 100 µM
COC(=O)[C@H](Cc1ccccc1)NC(=O)[C@@H](OC)[C@@H]1Cc2cc3cc(OC4CC(OC5CC(O)C(O)C(C)O5)C(O)C(C)O4)c(C)c(O)c3c(O)c2C(=O)[C@H]1OC1CC(OC2CC(OC3CC(C)(O)C(O)C(C)O3)C(O)C(C)O2)C(O)C(C)O1 (some centres not stated) | – | – | 0.0173 µM | 0.0707 µM | 0.0416 µM | > 14.3 µM | 0.00902 µM | > 14.3 µM | 0.00587 µM | > 14.3 µM | 0.0197 µM | > 14.3 µM | 0.0109 µM | 0.073 µM | 0.0186 µM | 0.0575 µM | 0.0277 µM | > 14.3 µM | 0.00991 µM | > 14.3 µM
O=C1CC(c2c[nH]c3ccccc23)C(=O)N1c1ccccc1 (configuration not stated) | – | > 100 µM | – | > 100 µM | – | > 100 µM | – | > 100 µM | – | > 100 µM | – | > 100 µM | – | > 100 µM | – | > 100 µM | – | > 100 µM | – | –
COc1cc(/C=C2\CCc3ccccc3C2=O)cc(OC)c1OC | – | 29.6 µM | – | 29.8 µM | – | 29.8 µM | – | – | – | 28 µM | – | 36.4 µM | – | 31.3 µM | – | 53.6 µM | – | 60.8 µM | – | 35.6 µM
CC(C)CC(=O)CC(O)C(Cl)(Cl)Cl (configuration not stated) | – | > 100 µM | – | > 100 µM | – | > 100 µM | – | > 100 µM | – | > 100 µM | – | – | – | > 100 µM | – | > 100 µM | – | > 100 µM | – | > 100 µM
COc1ccc(-c2nn(-c3cccc(NC(=O)Nc4cccc(C(F)(F)F)c4)c3)cc2-c2ccncc2)cc1Cl | 1.88 µM | > 100 µM | 2.37 µM | 5.23 µM | 1.77 µM | > 100 µM | 3.73 µM | > 100 µM | 1.31 µM | 9.04 µM | 1.76 µM | 11.5 µM | 1.02 µM | 4.54 µM | 1.51 µM | 8.37 µM | – | – | 2.4 µM | > 100 µM
